Assay results from patent publication US12128030B2, “Pharmaceutical composition comprising antiplatelet agent and gastric acid secretion inhibitor” (HK INNO.N CORPORATION, priority 2018, dated 2024).

Columns and labels:
[1] = clopidogrel in direct contact with compound of Formula 1; 40° C./RH 75%, four weeks
Method: A test on blending compatibility with additives was performed in a state, in which clopidogrel was alone and mixed with a compound of Formula 1.
A ratio of additives to main component was adjusted, after which a change of contents and related substances was evaluated under accelerated test conditions (40° C./RH 75%) for four weeks, such that the results thereof are shown in FIGS. 3 to 5.

[2] = Evaluation test on pharmacokinetic drug interactions through nonclinical models; assay type: in vivo; details: beagle dogs; combined administration with clopidogrel
Method: To determine the effect of esomeprazole (PPI drug) and a compound of Formula 1 on a medicinal effect of clopidogrel, a test on pharmacokinetic drug interactions was performed in such a way that 20 mg of clopidogrel and 20 mg of esomeprazole or 50 mg of the compound of Formula 1 were administered in combination into beagle dogs once or repeatedly (for seven days).
Particularly, clopidogrel was repeatedly administered into ten beagle dogs for seven days, after which esomeprazole and the compound of Formula 1 were administered in combination into those beagle dogs at steady-state for seven days, such that blood was collected therefrom on 5th, 8th and 14th days, to perform a pharmacokinetic analysis before and after the administration.
FIGS. 1 and 2 are graphs of showing a concentration of clopidogrel active metabolites in blood, which was measured after administering esomeprazole and the compound of Formula 1 in combination, respectively.

Structure (SMILES) | stability of drug (contents and related substances) [1] | risk of drug interactions with clopidogrel [2]
COC(=O)[C@H](c1ccccc1Cl)N1CCc2sccc2C1 [clopidogrel, methyl (+)-(S)-α-(2-chlorophenyl)-6,7-dihydrothieno[3,2-c]pyridine-5(4H)-acetate] | stability of a drug deteriorates | –
Cc1nc2c(O[C@H]3CCOc4cc(F)cc(F)c43)cc(C(=O)N(C)C)cc2[nH]1 [compound of Formula 1, (S)-4-[(5,7-difluoro-3,4-dihydro-2H-chromene-4-yl)oxy]-N,N,2-trimethyl-1H-benzimidazole-6-carboxamide] | – | low risk of drug interactions
